# According to patent US20030165854A1, “Marker genes responding to treatment with toxins” (priority 2000, published 2003):
# Key:
# [1] = system: rat liver cDNAs SEQ ID NOs: 1-61; format: in vivo, Han/Wistar rat; conditions: Strain HW
# [2] = system: rat liver cDNAs SEQ ID NOs: 1-61; format: in vivo, Han/Wistar rat; conditions: Strain HW, Sex F
smiles,measurement,setting,value
"S=C=Nc1cccc2ccccc12 [ANIT, α-naphthylisothiocyanate]","Maximum Abundance, SEQ ID NO 15, Clone ID 700024728",[1],3
same,"Maximum Abundance, SEQ ID NO 16, Clone ID 700024834",[1],3
same,"Maximum Abundance, SEQ ID NO 17, Clone ID 700059927",[1],4
same,"Maximum Abundance, SEQ ID NO 18, Clone ID 700060675",[1],4
same,"Maximum Abundance, SEQ ID NO 19, Clone ID 700062240",[1],5
same,"Maximum Abundance, SEQ ID NO 20, Clone ID 700063569",[1],3
same,"Maximum Abundance, SEQ ID NO 21, Clone ID 700064131",[1],3
same,"Maximum Abundance, SEQ ID NO 23, Clone ID 700067778",[1],3
same,"Maximum Abundance, SEQ ID NO 24, Clone ID 700123633",[1],3
same,"Maximum Abundance, SEQ ID NO 29, Clone ID 700137416",[1],4
same,"Maximum Abundance, SEQ ID NO 31, Clone ID 700140450",[1],8
same,"Maximum Abundance, SEQ ID NO 32, Clone ID 700144406",[1],4
same,"Maximum Abundance, SEQ ID NO 33, Clone ID 700175249",[1],7
same,"Maximum Abundance, SEQ ID NO 34, Clone ID 700177158",[1],3
same,"Maximum Abundance, SEQ ID NO 35, Clone ID 700179766",[1],3
same,"Maximum Abundance, SEQ ID NO 36, Clone ID 700181614",[1],3
same,"Maximum Abundance, SEQ ID NO 38, Clone ID 700185871",[1],3
same,"Maximum Abundance, SEQ ID NO 39, Clone ID 700198357",[1],3
same,"Maximum Abundance, SEQ ID NO 40, Clone ID 700230123",[1],4
same,"Maximum Abundance, SEQ ID NO 41, Clone ID 700248367",[1],3
same,"Maximum Abundance, SEQ ID NO 45, Clone ID 700305380",[1],4
same,"Maximum Abundance, SEQ ID NO 48, Clone ID 700363174",[1],3
same,"Maximum Abundance, SEQ ID NO 49, Clone ID 700478138",[1],5
same,"Maximum Abundance, SEQ ID NO 50, Clone ID 700480077",[1],3
same,"Maximum Abundance, SEQ ID NO 51, Clone ID 700483222",[1],3
same,"Maximum Abundance, SEQ ID NO 53, Clone ID 700818852",[1],5
same,"Maximum Abundance, SEQ ID NO 54, Clone ID 700937735",[1],8
same,"Maximum Abundance, SEQ ID NO 55, Clone ID 701197728",[1],3
same,"Maximum Abundance, SEQ ID NO 56, Clone ID 701257766",[1],3
same,"Maximum Abundance, SEQ ID NO 57, Clone ID 701341861",[1],3
same,"Maximum Abundance, SEQ ID NO 60, Clone ID 701597659",[1],3
same,"Maximum Abundance, SEQ ID NO 61, Clone ID 701637512",[1],4
same,"Maximum Abundance, SEQ ID NO 14, Clone ID 700330824",[1]; Sex F,3
same,"Maximum Abundance, SEQ ID NO 12, Clone ID 700062506",[2],3
"CC(C)OC(=O)C(C)(C)Oc1ccc(C(=O)c2ccc(Cl)cc2)cc1 [Feno, fenofibrate]","Maximum Abundance, SEQ ID NO 20, Clone ID 700063569",[1],3
same,"Maximum Abundance, SEQ ID NO 30, Clone ID 700140375",[1],3
same,"Maximum Abundance, SEQ ID NO 31, Clone ID 700140450",[1],8
same,"Maximum Abundance, SEQ ID NO 35, Clone ID 700179766",[1],3
same,"Maximum Abundance, SEQ ID NO 37, Clone ID 700182016",[1],3
same,"Maximum Abundance, SEQ ID NO 38, Clone ID 700185871",[1],3
same,"Maximum Abundance, SEQ ID NO 39, Clone ID 700198357",[1],3
same,"Maximum Abundance, SEQ ID NO 40, Clone ID 700230123",[1],4
same,"Maximum Abundance, SEQ ID NO 42, Clone ID 700250877",[1],3
same,"Maximum Abundance, SEQ ID NO 45, Clone ID 700305380",[1],4
same,"Maximum Abundance, SEQ ID NO 49, Clone ID 700478138",[1],5
same,"Maximum Abundance, SEQ ID NO 53, Clone ID 700818852",[1],5
same,"Maximum Abundance, SEQ ID NO 54, Clone ID 700937735",[1],8
same,"Maximum Abundance, SEQ ID NO 55, Clone ID 701197728",[1],3
same,"Maximum Abundance, SEQ ID NO 60, Clone ID 701597659",[1],3
same,"Maximum Abundance, SEQ ID NO 13, Clone ID 700135749",[2],4
